Values quoted from earlier work as cited in article PMC12491383, “Organ and tumour dosimetry of ^177Lu-rhPSMA-10.1, a novel PSMA-targeted therapy: results from a Phase I trial” (European Journal of Nuclear Medicine and Molecular Imaging, 2025).

Experiments:
[1] = design: method as in PMID 38050121; settings: cited from earlier work
[2] = design: method as in PMID 34887335; settings: reported data; cited from earlier work

O=C([O-])CN1CCN(CC(=O)[O-])CCN(CC(=O)NCC2CCC(C(=O)N[C@@H](Cc3ccc4ccccc4c3)C(=O)NCCCC[C@H](NC(=O)N[C@@H](CCC(=O)O)C(=O)O)C(=O)O)CC2)CCN(CC(=O)[O-])CC1.[177Lu+3] (stereo partly shown) [^177Lu-PSMA-617, lutetium Lu 177 vipivotide tetraxetan]
Absorbed dose to the bone marrow ([1]; VISION dosimetry substudy): 0.035 Gy/GBq | Absorbed dose in the salivary glands ([1]; VISION substudy): 0.63 Gy/GBq | Absorbed dose in the kidneys ([1]; dosimetry substudy of the Phase III VISION trial): 0.43 Gy/GBq | Tumour effective half-life [2]: 61 h
